Counter-ions that a name gives are not always drawn.
Assays:
[1] = target: T1, human FAAH (Homo sapiens, UniProt O00519); experiment: Assay Method 1: FAAH assay, hydrolysis of 3H-anandamide by homogenate of SK-N-MC cells transfected with human FAAH; type: biochemical; conditions: human FAAH; T84 or transfected SK-N-MC cell homogenate; 3H-AEA tracer 80 nM; rt 1 h; pH 9; read-out: Assay 1 IC50
T1 construct: expressed in transfected cells
T1 sequence (O00519 1-579): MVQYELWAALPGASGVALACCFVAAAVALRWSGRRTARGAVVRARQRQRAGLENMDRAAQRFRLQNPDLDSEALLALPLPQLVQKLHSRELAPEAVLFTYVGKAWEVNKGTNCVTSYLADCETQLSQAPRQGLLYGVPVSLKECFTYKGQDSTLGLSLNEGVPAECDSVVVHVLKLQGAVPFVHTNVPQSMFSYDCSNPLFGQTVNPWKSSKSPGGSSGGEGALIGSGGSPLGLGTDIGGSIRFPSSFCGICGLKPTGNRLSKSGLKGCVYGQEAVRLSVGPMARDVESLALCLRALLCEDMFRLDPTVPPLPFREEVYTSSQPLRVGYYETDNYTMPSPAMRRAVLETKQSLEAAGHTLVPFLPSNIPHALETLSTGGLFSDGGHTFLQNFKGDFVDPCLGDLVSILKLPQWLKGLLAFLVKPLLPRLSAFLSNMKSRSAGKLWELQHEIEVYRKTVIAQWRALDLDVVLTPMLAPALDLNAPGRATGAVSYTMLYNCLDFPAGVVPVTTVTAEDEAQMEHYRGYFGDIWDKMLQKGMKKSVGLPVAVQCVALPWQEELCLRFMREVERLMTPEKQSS
Method: A. Transfection of Cells with Human FAAH
(§1) A 10-cm tissue culture dish with a confluent monolayer of SK-N-MC cells was split 2 days (d) prior to transfection. Using sterile technique, the media was removed and the cells were detached from the dish by the addition of trypsin. One fifth of the cells were then placed onto a new 10-cm dish. Cells were grown in a 37° C. incubator with 5% CO2 in Minimal Essential Media Eagle with 10% Fetal Bovine Serum. After 2 d, cells were approximately 80% confluent. These cells were removed from the dish with trypsin and pelleted in a clinical centrifuge. The pellet was re-suspended in 400 μL complete media and transferred to an electroporation cuvette with a 0.4 cm gap between the electrodes. Supercoiled human FAAH cDNA (1 μg) was added to the cells and mixed. The voltage for the electroporation was set at 0.25 kV, and the capacitance was set at 960 μF. After electroporation, the cells were diluted into complete media (10 mL) and plated onto four 10-cm dishes. Because of the variability in the efficiency of electroporation, four different concentrations of cells were plated. The ratios used were 1:20, 1:10, and 1:5, with the remainder of the cells being added to the fourth dish. The cells were allowed to recover for 24 h before adding the selection media (complete media with 600 μg/mL G418). After 10 d, dishes were analyzed for surviving colonies of cells. Dishes with well-isolated colonies were used. Cells from individual colonies were isolated and tested.
The assay mixture consisted of […] of the cell homogenate, 10 μL of the test compound, and 40 μL of anandamide [1-^3H-ethanolamine] (3H-AEA, Perkin-Elmer, 10.3 Ci/mmol), which was added last, for a final tracer concentration of 80 nM. The reaction mixture was incubated at rt for 1 h. During the incubation, 96-well Multiscreen filter plates (catalog number MAFCNOB50; Millipore, Bedford, Mass., USA) were loaded with 25 μL of activated charcoal (Multiscreen column loader, catalog number MACL09625, Millipore) and washed once with 100 μL of MeOH. Also during the incubation, 96-well DYNEX MicroLite plates (catalog number NL510410) were loaded with 100 μL of MicroScint40 (catalog number 6013641, Packard Bioscience, Meriden, Conn., USA). After the 1 h incubation, 60 μL of the reaction mixture were transferred to the charcoal plates, which were then assembled on top of the DYNEX plates using Centrifuge Alignment Frames (catalog number MACF09604, Millipore). The unbound labeled ethanolamine was centrifuged through to the bottom plate (5 min at 2000 rpm), which was preloaded with the scintillant, as described above. The plates were sealed and left at rt for 1 h before counting on a Hewlett Packard TopCount.

[2] = target: T2, rat FAAH (Rattus norvegicus, UniProt P97612); experiment: Assay Method 2: FAAH assay, hydrolysis of 3H-anandamide by homogenate of SK-N-MC cells transfected with rat FAAH; type: biochemical; conditions: T84 or transfected SK-N-MC cell homogenate, 3H-AEA tracer 80 nM, rt 1 h, pH 9
T2 construct: expressed in transfected cells
T2 sequence (P97612 1-579): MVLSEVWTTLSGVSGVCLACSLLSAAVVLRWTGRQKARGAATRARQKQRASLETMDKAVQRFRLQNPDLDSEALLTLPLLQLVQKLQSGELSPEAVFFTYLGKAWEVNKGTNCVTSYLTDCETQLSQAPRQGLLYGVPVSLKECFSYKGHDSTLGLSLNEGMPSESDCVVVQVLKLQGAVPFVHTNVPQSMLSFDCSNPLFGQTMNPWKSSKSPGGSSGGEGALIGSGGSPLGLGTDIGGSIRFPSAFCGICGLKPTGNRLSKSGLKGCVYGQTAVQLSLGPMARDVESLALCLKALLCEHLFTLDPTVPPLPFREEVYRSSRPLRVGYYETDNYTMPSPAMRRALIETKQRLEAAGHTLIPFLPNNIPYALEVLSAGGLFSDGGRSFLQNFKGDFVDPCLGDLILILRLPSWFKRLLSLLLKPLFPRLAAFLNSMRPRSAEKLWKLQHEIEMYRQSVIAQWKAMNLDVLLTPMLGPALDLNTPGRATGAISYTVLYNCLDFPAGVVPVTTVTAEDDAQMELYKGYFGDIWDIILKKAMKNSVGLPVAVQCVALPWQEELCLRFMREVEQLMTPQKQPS
Method: as §1, with “A. Transfection of Cells with Rat FAAH A 10-cm” for “A 10-cm”, “electrodes. Supercoiled rat FAAH cDNA” for “electrodes. Supercoiled human FAAH cDNA”, “and tested. […] B. FAAH Assay […] The reaction mixture was incubated at rt for 1 h. During the incubation, 96-well Multiscreen filter plates (catalog number MAFCNOB50; Millipore, Bedford, Mass., USA) were loaded with 25 μL of activated charcoal (Multiscreen column loader, catalog number MACL09625, Millipore) and washed once with 100 μL of MeOH. Also during the incubation, 96-well DYNEX MicroLite plates (catalog number NL510410) were loaded with 100 μL of MicroScint40 (catalog number 6013641, Packard Bioscience, Meriden, Conn., USA). After the 1 h incubation, 60 μL of the reaction mixture were transferred to the charcoal plates, which were then assembled on top of the DYNEX plates using Centrifuge Alignment Frames (catalog number MACF09604, Millipore). The unbound labeled ethanolamine was centrifuged through to the bottom plate (5 min at 2000 rpm), which was preloaded with the scintillant, as described above. The plates were sealed and left at rt for 1 h before counting on a Hewlett Packard TopCount.” for “and tested.”

| SMILES | IC50 [1] | IC50 [2] |
| --- | --- | --- |
| CC(C)C(=O)N1CCC(CCCC(=O)c2ncco2)CC1 [Example 30, 4-(1-Isobutyryl-piperidin-4-yl)-1-oxazol-2-yl-butan-1-one] | 250 nM | 2250 nM |
| O=C(CCCC1CCN(C(=O)c2ccccc2)CC1)c1ncco1 [Example 28, 4-(1-Benzoyl-piperidin-4-yl)-1-oxazol-2-yl-butan-1-one] | 67 nM | 563 nM |
| O=C(CCCC1CCN(Cc2ccc(C3CCCCC3)cc2)CC1)c1ncco1 [Example 101, 4-[1-(4-Cyclohexyl-benzyl)-piperidin-4-yl]-1-oxazol-2-yl-butan-1-one] | 23 nM | 44 nM |
| O=C(CCCC1CCN(Cc2ccccc2Cl)CC1)c1ncco1 [Example 84, 4-[1-(2-Chloro-benzyl)-piperidin-4-yl]-1-oxazol-2-yl-butan-1-one] | 260 nM | 563 nM |
| CC(C)Oc1ccc(CN2CCC(CCCC(=O)c3ncco3)CC2)cc1 [Example 23, 4-[1-(4-isopropoxy-benzyl)-piperidin-4-yl]-1-oxazol-2-yl-butan-1-one] | 14 nM | 31 nM |
| CC(C)c1ccc(CN2CCC(CCCC(=O)c3ncc(-c4cccc(C(=O)O)n4)o3)CC2)cc1 [Example 148, 6-(2-{4-[1-(4-isopropyl-benzyl)-piperidin-4-yl]-butyryl}-oxazol-5-yl)-pyridine-2-carboxylic acid trifluoroacetic acid salt] | 60 nM | 56 nM |
| Cc1cc(CC(=O)N2CCC(CCCC(=O)c3ncco3)CC2)on1 [Example 43, 4-{1-[2-(3-Methyl-isoxazol-5-yl)-acetyl]-piperidin-4-yl}-1-oxazol-2-yl-butan-1-one] | 4000 nM |  |
| O=C(CCCC1CCN(CC2CCCCC2)CC1)c1ncco1 [Example 86, 4-(1-Cyclohexylmethyl-piperidin-4-yl)-1-oxazol-2-yl-butan-1-one] | 9500 nM |  |
| COc1ccccc1CN1CCC(CCCC(=O)c2ncco2)CC1 [Example 87, 4-[1-(2-Methoxy-benzyl)-piperidin-4-yl]-1-oxazol-2-yl-butan-1-one] | 4000 nM |  |
| O=C(CCCC1CCN(Cc2ccc(N3CCOCC3)cc2)CC1)c1ncco1 [Example 106, 4-[1-(4-Morpholin-4-yl-benzyl)-piperidin-4-yl]-1-oxazol-2-yl-butan-1-one] | 2000 nM |  |

Further lines, results first:

| IC50 [1] | IC50 [2] | SMILES |
| --- | --- | --- |
| 2 nM | 10 nM | O=C(CCCC1CCN(C(=O)CCC2CCCCC2)CC1)c1ncco1 [Example 50, 4-[1-(3-Cyclohexyl-propionyl)-piperidin-4-yl]-1-oxazol-2-yl-butan-1-one] |
| 70 nM | 923 nM | O=C(CCCC1CCN(Cc2ccnc3ccccc23)CC1)c1ncco1 [Example 93, 1-Oxazol-2-yl-4-(1-quinolin-4-ylmethyl-piperidin-4-yl)-butan-1-one] |
| 88 nM | 760 nM | O=C(CCCC1CCN(Cc2cc(F)c(F)c(F)c2)CC1)c1ncco1 [Example 131, 1-Oxazol-2-yl-4-[1-(3,4,5-trifluoro-benzyl)-piperidin-4-yl]-butan-1-one] |
| 130 nM | 700 nM | CCN(CC)c1ccc(CN2CCC(CCCC(=O)c3ncco3)CC2)cc1 [Example 89, 4-[1-(4-Diethylamino-benzyl)-piperidin-4-yl]-1-oxazol-2-yl-butan-1-one] |
| 28 nM | 318 nM | O=C(CCCC1CCN(Cc2cc(F)ccc2F)CC1)c1ncco1 [Example 113, 4-[1-(2,5-Difluoro-benzyl)-piperidin-4-yl]-1-oxazol-2-yl-butan-1-one] |
| 23 nM | 49 nM | CC(C)Cc1ccc(CN2CCC(CCCC(=O)c3ncco3)CC2)cc1 [Example 82, 4-[1-(4-Isobutyl-benzyl)-piperidin-4-yl]-1-oxazol-2-yl-butan-1-one] |
| 530 nM | 3000 nM | O=C(CCCC1CCN(Cc2ccc(N3CCCC3)cc2)CC1)c1ncco1 [Example 102, 1-oxazol-2-yl-4-[1-(4-pyrrolidin-1-yl-benzyl)-piperidin-4-yl]-butan-1-one] |
| 8 nM | 9 nM | O=C(CCCC1CCN(Cc2ccc3ccccc3c2)CC1)c1ncco1 [Example 20, 4-(1-Naphthalen-2-ylmethyl-piperidin-4-yl)-1-oxazol-2-yl-butan-1-one] |
| 14 nM | 3 nM | O=C(O)c1cnc(C(=O)CCCC2CCN(Cc3cccc(-c4ccccc4)c3)CC2)o1 [Example 143, 2-[4-(1-Biphenyl-3-ylmethyl-piperidin-4-yl)-butyryl]-oxazole-5-carboxylic acid trifluoroacetic acid salt] |
|  | 1200 nM | O=C(CCCC1CCN(CCc2ccccc2)CC1)c1ncco1 [Example 95, 1-Oxazol-2-yl-4-(1-phenethyl-piperidin-4-yl)-butan-1-one] |
| 3000 nM |  | O=C(CCCC1CCN(Cc2ccccn2)CC1)c1ncco1 [Example 4, 1-Oxazol-2-yl-4-(1-pyridin-2-ylmethyl-piperidin-4-yl)-butan-1-one] |

Source: patent publication US20090111778A1, “2-Keto-Oxazoles as Modulators of Fatty Acid Amide Hydrolase” (priority 2005, published 2009)
